Laboratory results taken from US20230286946A1, “DIFLUOROMETHYL-PYRIDIN-2-YL TRIAZOLES” (Boehringer Ingelheim International GmbH, priority 2020, published 2023).
Where two headings read alike, the source gives them in different places.

Assays:
[1] = target: T1, human GABAA α5β3γ2s receptor (Homo sapiens, UniProt P18507+P31644); experiment: Assay A: in vitro inhibition of 3H-flumazenil binding, HEK cells expressing the human GABAA α5β3γ2s receptor
T1 sequence (P18507 1-475): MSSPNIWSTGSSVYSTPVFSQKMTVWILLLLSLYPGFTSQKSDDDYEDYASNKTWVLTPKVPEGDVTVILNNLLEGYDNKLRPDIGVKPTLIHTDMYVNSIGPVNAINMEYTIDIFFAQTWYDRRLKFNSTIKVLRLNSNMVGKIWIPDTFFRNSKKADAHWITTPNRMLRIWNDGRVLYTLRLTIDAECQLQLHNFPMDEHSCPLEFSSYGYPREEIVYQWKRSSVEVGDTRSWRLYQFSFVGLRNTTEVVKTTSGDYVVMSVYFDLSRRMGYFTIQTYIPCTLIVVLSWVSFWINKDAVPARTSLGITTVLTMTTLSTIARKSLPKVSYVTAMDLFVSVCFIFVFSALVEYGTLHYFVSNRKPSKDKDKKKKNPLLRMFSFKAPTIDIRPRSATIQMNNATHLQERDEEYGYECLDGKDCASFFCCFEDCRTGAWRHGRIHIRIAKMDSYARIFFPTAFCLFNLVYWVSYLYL
T1 sequence (P31644 1-462): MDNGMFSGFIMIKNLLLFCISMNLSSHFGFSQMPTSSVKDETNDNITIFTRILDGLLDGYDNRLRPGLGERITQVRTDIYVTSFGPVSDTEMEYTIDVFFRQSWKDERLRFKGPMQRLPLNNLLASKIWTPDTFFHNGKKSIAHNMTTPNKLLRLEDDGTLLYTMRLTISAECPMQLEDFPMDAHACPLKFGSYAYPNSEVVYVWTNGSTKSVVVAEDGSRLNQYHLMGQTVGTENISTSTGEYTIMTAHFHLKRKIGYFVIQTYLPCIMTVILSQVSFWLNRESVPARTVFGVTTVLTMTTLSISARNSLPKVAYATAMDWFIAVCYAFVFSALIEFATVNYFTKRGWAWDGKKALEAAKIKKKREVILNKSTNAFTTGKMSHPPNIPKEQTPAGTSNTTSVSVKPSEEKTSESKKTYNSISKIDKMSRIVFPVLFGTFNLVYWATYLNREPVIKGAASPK
Experimental: Cell Cultures and Membrane Preparation
HEK-293 cell lines with stable expression of recombinant human GABAA α5ß3 γ2s receptors (plasmid H46/E9/B10) are seeded in T175 polystyrene flasks or roller bottles (1700 cm^2, Fisher Scientific CCI-431191), and cultured (37° C., 5% CO2) in Dulbecco's Modified Eagle Medium (DMEM) with GlutaMAX™ supplemented with 10% fetal bovine serum and one or both of the following antibiotics: hygromycin B ([…]; γ2 subunit) or G418 (0.5 mg/ml; […]).
When the cultures reach confluency, the DMEM is removed and the cells are washed (10 ml for T175 flasks; 50 ml for roller bottles) once in Dulbecco's Phosphate Buffered Saline (DPBS). Following addition of DPBS to the cultures (10 ml for T175 flasks; 100 ml for roller bottles) for approximately 5 min cells are easily detached from the surface by shaking or tapping the flask gently. The cell suspension is transferred to Falcon tubes and centrifuged at 23,500×g for 10 min at 2° C. The pellet is washed once in 15 ml Tris-citrate buffer (50 mM, pH 7.1) using an Ultra-Turrax homogenizer and centrifuged at 2° C. for 10 min at 27,000×g. The washed pellet is re-suspended in 15 ml Tris-citrate buffer and frozen at −80° C. until the day of the binding experiment.
On the day of the experiment the cell membrane preparation is thawed and centrifuged at 2° C. for 10 min at 27,000×g. The pellet is re-suspended, using an Ultra-Turrax homogenizer in Tris-citrate buffer, to 15-50 µg protein per assay and then used for binding assays.
Non-specific binding is determined using clonazepam ([…]).
All dilutions of test compounds and incubation of assay are performed in glass vials/96-vial plates. […] Compounds are dissolved in 100% DMSO (10 mM stock), diluted in 48% ethanol-water, and tested in triplicate in serial 1:3 or 1:10 dilutions. When screening large numbers of compounds only one concentration of each compound is tested in single wells. Reference compounds are not included routinely, but for each experiment performed total and nonspecific binding is compared to data obtained during validation of the assay.
Binding is either terminated by rapid filtration onto
1) Whatman GF/C glass fibre filters using a Brandel Cell harvester, followed by 5 washes with 1 ml ice-cold buffer or onto 2) UniFilter GF/C glass fibre filter plates using a Tomtec cell harvester, followed by washing with approximately 5 ml ice-cold buffer.
The amount of radioactivity on the filters is determined by conventional liquid scintillation counting using a
1) Tri-Garb™ counter (PerkinElmer Life and Analytical Sciences) for separate large filters or
2) Topcount™ counter (PerkinElmer Life and Analytical Sciences) for 96-well filter plates.
Specific binding is total binding minus non-specific binding.
The IC50 value for a test compound is determined based on the equation: […]
where B is the binding in percentage of total specific binding; C is the concentration of test compound; and n is the Hill coefficient. For screening purposes n is set to 1. The IC50 value is calculated from the concentration response curves by the non-linear regression method using the curve-fitting program GraphPad Prism.
The Ki value for a test compound can be calculated from the IC50 value using the equation by Cheng and Prusoff: […]

α5ß2 γ2 GABAA Receptor = target: T2, α5ß2 γ2 GABAA Receptor (Homo sapiens, UniProt P18507+P31644); experiment: Assay B: in vitro evaluation of modulation of α5ß2γ2 GABAA receptor, two-electrode voltage clamp in oocytes; assay type: cell-based; settings: for EC50: co-application with 0.5 μM GABA, oocytes, read-out: Assay B: GABAA α 5 β 3 γ 2 EC50
T2 sequence (P31644 32-462): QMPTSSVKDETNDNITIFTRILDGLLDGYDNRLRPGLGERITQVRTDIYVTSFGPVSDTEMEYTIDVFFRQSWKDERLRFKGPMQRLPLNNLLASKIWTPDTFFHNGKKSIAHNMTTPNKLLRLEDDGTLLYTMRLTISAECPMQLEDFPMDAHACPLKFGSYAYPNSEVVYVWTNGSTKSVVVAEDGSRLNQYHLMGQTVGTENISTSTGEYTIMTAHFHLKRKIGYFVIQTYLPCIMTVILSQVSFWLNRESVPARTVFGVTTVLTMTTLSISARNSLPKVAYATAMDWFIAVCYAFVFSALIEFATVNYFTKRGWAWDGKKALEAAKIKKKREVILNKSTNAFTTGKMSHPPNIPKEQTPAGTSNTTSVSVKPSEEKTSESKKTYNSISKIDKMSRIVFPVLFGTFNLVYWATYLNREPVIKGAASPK
T2 sequence (P18507 40-376 limits assumed): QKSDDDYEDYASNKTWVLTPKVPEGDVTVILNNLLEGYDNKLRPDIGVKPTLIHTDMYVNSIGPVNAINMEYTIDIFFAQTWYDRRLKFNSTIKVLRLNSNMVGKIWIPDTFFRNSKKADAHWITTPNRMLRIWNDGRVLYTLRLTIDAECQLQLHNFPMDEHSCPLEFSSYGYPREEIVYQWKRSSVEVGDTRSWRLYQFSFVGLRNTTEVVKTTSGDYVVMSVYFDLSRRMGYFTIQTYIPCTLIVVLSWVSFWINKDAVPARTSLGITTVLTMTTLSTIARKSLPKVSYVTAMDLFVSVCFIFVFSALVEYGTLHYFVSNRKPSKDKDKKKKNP
Experimental: Assay B: In Vitro Evaluation of Modulation of α5ß2 γ2 GABAA Receptor.
Modulatory efficacy of compounds of formular (I) is determined electrophysiological recordings in oocytes using the two-electrode voltage clamp (TEVC) technique. Oocytes are injected with cRNA for human GABAA receptor subunits α5, ß2 and γ2 in a 3:1:3 ratio and modulatory efficacy is evaluated by co-applications with a submaximal EC5-20 GABA concentration (0.5 μM) termed GABA control. As a standard, the compounds are tested in five concentrations (3.16, 0.316, 0.0316, 0.00316 and 0.000316 μM) on each oocyte starting with the lowest concentration. Background subtracted peak current amplitudes are normalized to the respective GABAcontrol current, converted to % change and depicted +/−S.E.M. as a function of increasing compound concentrations. Plotted datapoints are fitted to the empirical Hill equation using non-linear regression. 95% confidence intervals for maximal efficacy (Bottom) and potency (Log EC50) are derived from this fitting routine.

[2] = read-out: Assay A: GABAA α 5 β 3 γ 2s Ki
[3] = comparison compounds of WO 2020/016433, read-out: Assay A: GABAA α5 β3 γ2S Ki

CSc1ccc(-c2ccc(OCc3c(C)nnn3-c3ccc(C(F)F)cn3)nn2)cn1 [Example 10]
Ki [1, 2]: 9 nM
Assay B: GABAA α 5 β 3 γ 2 Emax vs GABA (α5ß2 γ2 GABAA Receptor): -8%
EC50 (α5ß2 γ2 GABAA Receptor): 75 nM

Cc1nnn(-c2ccc(C(F)F)cn2)c1COc1ccc(-c2cccc(C#N)n2)nn1 [Example 11]
Ki [1, 2]: 9 nM
Assay B: GABAA α 5 β 3 γ 2 Emax vs GABA (α5ß2 γ2 GABAA Receptor): -13.5%
EC50 (α5ß2 γ2 GABAA Receptor): 37.5 nM

Cc1nnn(-c2ccc(C(F)F)cn2)c1COc1ccc(-c2cncc(C#N)c2)nn1 [Example 13]
Ki [1, 2]: 6 nM
Assay B: GABAA α 5 β 3 γ 2 Emax vs GABA (α5ß2 γ2 GABAA Receptor): -9%
EC50 (α5ß2 γ2 GABAA Receptor): 44.5 nM

CCn1cc(-c2ccc(OCc3c(C)nnn3-c3ccc(C(F)F)cn3)nn2)ccc1=O [Example 21]
Ki [1, 2]: 10 nM
Assay B: GABAA α 5 β 3 γ 2 Emax vs GABA (α5ß2 γ2 GABAA Receptor): -4%

CNc1cc(-c2ccc(OCc3c(-c4ccc(C(F)F)cn4)nnn3C)nn2)ccn1 [Example 26]
Ki [1, 2]: 14 nM
Assay B: GABAA α 5 β 3 γ 2 Emax vs GABA (α5ß2 γ2 GABAA Receptor): -5.3%

Cn1nnc(-c2ccc(C(F)F)cn2)c1COc1ccc(-c2cncc(C#N)c2)nn1 [Example 27]
Ki [1, 2]: 12 nM
Assay B: GABAA α 5 β 3 γ 2 Emax vs GABA (α5ß2 γ2 GABAA Receptor): -6.7%

Cn1ccc(-c2ccc(OCc3c(-c4ccc(C(F)F)cn4)nnn3C)nn2)n1 [Example 34]
Ki [1, 2]: 25 nM
Assay B: GABAA α 5 β 3 γ 2 Emax vs GABA (α5ß2 γ2 GABAA Receptor): -17%
EC50 (α5ß2 γ2 GABAA Receptor): 4.2 nM

Cc1nnn(-c2ccc(C(F)F)cn2)c1COc1ccc(-n2cnc(C(N)=O)c2)nn1 [Example 36]
Ki [1, 2]: > 8890 nM

CCc1cn(-c2ccc(OCc3c(-c4ccc(C(F)F)cn4)nnn3C)nn2)nc1N [Example 40]
Ki [1, 2]: 8 nM
Assay B: GABAA α 5 β 3 γ 2 Emax vs GABA (α5ß2 γ2 GABAA Receptor): -10.3%
EC50 (α5ß2 γ2 GABAA Receptor): 32.7 nM

CNc1cc(C)nn1-c1ccc(OCc2c(-c3ccc(C(F)F)cn3)nnn2C)nn1 [Example 41]
Ki [1, 2]: 2 nM
Assay B: GABAA α 5 β 3 γ 2 Emax vs GABA (α5ß2 γ2 GABAA Receptor): -21.3%
EC50 (α5ß2 γ2 GABAA Receptor): 43.7 nM

Cc1nnn(-c2ccc(C(F)F)cn2)c1COc1ccc(-n2ccnn2)nn1 [Example 44]
Ki [1, 2]: 14 nM
Assay B: GABAA α 5 β 3 γ 2 Emax vs GABA (α5ß2 γ2 GABAA Receptor): -17.7%
EC50 (α5ß2 γ2 GABAA Receptor): 14.1 nM

CCc1nccn1-c1ccc(OCc2c(-c3ccc(C(F)F)cn3)nnn2C)nn1 [Example 45]
Ki [1, 2]: 150 nM
Assay B: GABAA α 5 β 3 γ 2 Emax vs GABA (α5ß2 γ2 GABAA Receptor): -17.3%
EC50 (α5ß2 γ2 GABAA Receptor): 23 nM

Cn1nnc(-c2ccc(C(F)F)cn2)c1COc1ccc(-n2ccnc2C#N)nn1 [Example 46]
Ki [1, 2]: 220 nM
Assay B: GABAA α 5 β 3 γ 2 Emax vs GABA (α5ß2 γ2 GABAA Receptor): -26.3%
EC50 (α5ß2 γ2 GABAA Receptor): 10.4 nM

Cc1nccn1-c1ccc(OCc2c(-c3ccc(C(F)F)cn3)nnn2C)nn1 [Example 47]
Ki [1, 2]: 120 nM
Assay B: GABAA α 5 β 3 γ 2 Emax vs GABA (α5ß2 γ2 GABAA Receptor): -7%
EC50 (α5ß2 γ2 GABAA Receptor): 15.5 nM

Cn1nnc(-c2ccc(C(F)F)cn2)c1COc1ccc(-n2cc(Cl)cn2)nn1 [Example 51, 3-(4-chloro-1H-pyrazol-1-yl)-6-({4-[5-(difluoromethyl)pyridin-2-yl]-1-methyl-1H-1,2,3-triazol-5-yl}methoxy)pyridazine]
Ki [1, 2]: 15 nM
Assay B: GABAA α 5 β 3 γ 2 Emax vs GABA (α5ß2 γ2 GABAA Receptor): -27.3%
EC50 (α5ß2 γ2 GABAA Receptor): 29 nM

Cc1nnn(-c2ccc(C(F)F)cn2)c1COc1ccc(-n2cc(F)cn2)nn1 [Example 54, 3-({1-[5-(difluoromethyl)pyridin-2-yl]-4-methyl-1H-1,2,3-triazol-5-yl}methoxy)-6-(4-fluoro-1H-pyrazol-1-yl)pyridazine]
Ki [1, 2]: 14 nM
Assay B: GABAA α 5 β 3 γ 2 Emax vs GABA (α5ß2 γ2 GABAA Receptor): -34.7%
EC50 (α5ß2 γ2 GABAA Receptor): 15 nM

Cc1nnn(-c2ccc(C(F)F)cn2)c1COc1ccc(-n2cncn2)nn1 [Example 55]
Ki ([1]; compounds of the present invention, read-out: Assay A: GABAA α5 β3 γ2S Ki): 0.032 nM
Ki [1, 2]: 32 nM
Assay B: GABAA α 5 β 3 γ 2 Emax vs GABA (α5ß2 γ2 GABAA Receptor): -20.3%
EC50 (α5ß2 γ2 GABAA Receptor): 24.3 nM

Cc1nnn(-c2ccc(C(F)F)cc2)c1COc1ccc(-n2cnc(C#N)c2)nn1 [reference compound]
Ki [1, 3]: 0.126 nM

Cc1nnn(-c2ccc(C(F)F)cc2)c1COc1ccc(-c2cnccn2)nn1 [reference compound]
Ki [1, 3]: 0.249 nM

Cc1nnn(-c2ccc(C(F)F)cc2)c1COc1ccc(-c2ccn[nH]2)nn1 [reference compound]
Ki [1, 3]: 0.12 nM

Cc1nnn(-c2ccc(C(F)F)cc2)c1COc1ccc(-n2cncn2)nn1 [reference compound]
Ki [1, 3]: 0.546 nM
